Reference: PubChem BioAssay AID2060356 (Molecular Pharmacology Branch, DTP, NCI, 2025)
Several values for one entry are separate records, joined by “and”; a condition that tells them apart may be missing. Identical values can stand only once.

Test system: PDC tumor spheroids with HUVEC/MSC, viability
Assay: Anticancer human tumor 439559-082-T-J2-PDC patient-derived colon adenocarcinoma cell line growth inhibition [TAK]
Conditions: for viability, T/C: stronger effect = lower value
Excerpt: Combinatorial screen of targeted agents with TAK-243 and ipatasertib in multi-cell type tumor spheroids
A high-throughput screen of multi-cell type tumor spheroids was designed to identify active combinations of targeted small molecules and TAK-243 or ipatasertib. Complex spheroids include a stromal component modeled by human endothelial cells (HUVEC) and fibroblasts modeled by human mesenchymal stem cells (MSCs). The concentration ranges selected for each drug and investigational agent were based upon clinically achievable concentrations if the clinical Cmax of the agent was known.
Compounds. The drugs and investigational agents: TAK-243 (785004), ipatasertib (767898), everolimus (733504), selumetinib (741078), bortezomib (756655), trametinib (758246), ixazomib (758254), vemurafenib (761431), dabrafenib (764134), sapanisertib (764658), alpelisib (765974), and copanlisib (816437), were obtained from the National Cancer Institute (NCI) Developmental Therapeutics Program Chemical Repository. The FDA-approved anticancer drug set is available from the NCI Developmental Therapeutics Program. […] The stock solutions were prepared in dimethyl sulfoxide (DMSO, Sigma-Aldrich, St. Louis, MO, cat. D2650) at 800-fold the tested concentration and stored at -70 degrees C prior to their use. All drugs and investigational agents were tested over a range starting from a high concentration at or near the clinical Cmax and decreasing in half-log increments. If the clinical Cmax for an agent had not been determined, the highest concentration tested was 10 microM.
NCI60 Cell Culture. NCI60 cell lines were obtained from the NCI Developmental Therapeutics Program Tumor Repository. For each lot of cells, the Repository performed Applied Biosystems AmpFLSTR Identifiler testing with PCR amplification to confirm consistency with the published Identifier STR profile for each cell line. Cells were kept in continuous culture for no more than 20 passages. The optimal seeding densities for each of the cell lines at each time point assessed were determined prior to performing the concentration response studies. Briefly, the NCI60 human tumor lines were grown as monolayers in RPMI 1640 medium supplemented with 10% FBS and 2 mmol/L L-glutamine.
An additional 2 lines were from the NCI60 cell line panel including melanomas, MALME-3M and SK-MEL-2. Pooled donor human umbilical vein endothelial cells (HUVEC, Lonza, cat. CC-2519) and human mesenchymal stem cells (hMSC, Lonza, cat. PT-2501) were purchased from Lonza (Walkersville, MD).
PDMR cell lines were grown in complete medium (DC medium): Dulbecco's modified Eagle's medium (DMEM)/F12 supplemented with 5% fetal bovine serum (FBS), 2 mM L-glutamine, 100 U/mL penicillin and 100 µg/ml streptomycin, 0.4 µg/ml hydrocortisone, 10 ng/ml epidermal growth factor (EGF) recombinant human protein, 24 µg/mL adenine, and 0.1 mg/mL primocin. During culture from frozen stock vials, PDMR cells were cultured in the same medium containing 10 µM Y-27632 (see Table 3). The PDCs were cultured in complete DMEM/F12 media without 10 microM Y-27632 dihydrochloride for at least two passages prior to the screen. The pooled donor HUVEC and hMSC were cultured in endothelial cell growth medium 2 (PromoCell, Heidelberg, Germany, cat. C-22011) and mesenchymal stem cell growth medium 2 (PromoCell, cat. C-28009), respectively. For all experiments, HUVEC and hMSC were used at passages </=5.
For the pre-screen, cell seeding densities were determined from a titration spanning the range from 5,000 to 313 cells per well. The mct-spheroids including 60% malignant cells, 25% HUVEC and 15% MSC dispensed as a mixture into U-bottom Ultra-Low Attachment 384-well plates (Corning, NY)
High-throughput Drug Combination Screening.
Prior to their inoculation into 384-well plates, malignant cells, HUVEC, and hMSC were removed from T flasks using TrypLE express (Thermo Fisher Scientific, cat. 12605036) and harvested by centrifugation for 5 min at 233 x g. […]
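Also: spheroids exposed to drugs for seven days before readout.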

In the case of `CC(C)CC(NC(=O)CNC(=O)c1cc(Cl)ccc1Cl)B1OC(=O)CC(CC(=O)O)(C(=O)O)O1` (stereo unspecified), the viability, T/C (compound 0.000316 µM) is reported as 111% and 114%, the viability, T/C (compound 0.001 µM) is reported as 96.4% and 98.7% and the viability, T/C (compound 0.00316 µM) is reported as 99.3% and 98.8%. The viability, T/C (compound 0.01 µM) was 93.5% and 90.3%, the viability, T/C (compound 0.0316 µM) was 85.8% and 77.8% and the viability, T/C (compound 0.1 µM) was 62.1% and 56.6%. The IC50 (curve of compound) was greater than 100 nM.

In the case of `CCCS(=O)(=O)Nc1ccc(F)c(C(=O)c2c[nH]c3ncc(-c4ccc(Cl)cc4)cc23)c1F`, the viability, T/C (compound 0.316 µM) is reported as 114% and 106%, the viability, T/C (compound 1 µM) is reported as 109% and 102% and the viability, T/C (compound 3.16 µM) is reported as 97.3% and 102%. The viability, T/C (compound 10 µM) was 87.2% and 71.7%, the viability, T/C (compound 31.6 µM) was 103% and 94.9% and the viability, T/C (compound 100 µM) was 93.9% and 95.7%. It also gave an IC50 (curve of compound) greater than 100000 nM.

In the case of `Cc1nc(NC(=O)N2CCCC2C(N)=O)sc1-c1ccnc(C(C)(C)C(F)(F)F)c1` (stereo unspecified), the viability, T/C (compound 0.0316 µM) is reported as 108% and 109%, the viability, T/C (compound 0.1 µM) is reported as 105% and 106% and the viability, T/C (compound 0.316 µM) is reported as 88.8% and 87%. For the same compound, the viability, T/C (compound 1 µM) was 90.8% and 87.5%, the viability, T/C (compound 3.16 µM) was 90% and 80.8% and the viability, T/C (compound 10 µM) was 82.5% and 78.5%. The IC50 (curve of compound) was greater than 10000 nM.

Work on `CC(C)CC(NC(=O)CNC(=O)c1cc(Cl)ccc1Cl)B1OC(=O)CC(CC(=O)O)(C(=O)O)O1` (stereo unspecified) + CC(C)NCC(C(=O)N1CCN(c2ncnc3c2C(C)CC3O)CC1)c1ccc(Cl)cc1 yielded an IC50 (curve of first compound, second compound 0.3 µM) greater than 100 nM, an IC50 (curve of first compound, second compound 0.949 µM) greater than 100 nM and an IC50 (curve of first compound, second compound 3 µM) greater than 100 nM. It also gave an IC50 (curve of first compound, second compound 9.49 µM) greater than 100 nM, an IC50 (curve of first compound, second compound 30 µM) greater than 100 nM and a viability, T/C (second compound 0.3 µM, first compound 0.000316 µM) of 98.8%. It also gave a viability, T/C (second compound 0.3 µM, first compound 0.001 µM) of 105%, a viability, T/C (second compound 0.3 µM, first compound 0.00316 µM) of 96% and a viability, T/C (second compound 0.3 µM, first compound 0.01 µM) of 94.4%. It also gave a viability, T/C (second compound 0.3 µM, first compound 0.0316 µM) of 79.7%, a viability, T/C (second compound 0.3 µM, first compound 0.1 µM) of 57.7% and a viability, T/C (second compound 0.949 µM, first compound 0.000316 µM) of 117%. For the same compound, the viability, T/C (second compound 0.949 µM, first compound 0.001 µM) was 107%, the viability, T/C (second compound 0.949 µM, first compound 0.00316 µM) was 102% and the viability, T/C (second compound 0.949 µM, first compound 0.01 µM) was 98.4%. The viability, T/C (second compound 0.949 µM, first compound 0.0316 µM) was 79.6%, the viability, T/C (second compound 0.949 µM, first compound 0.1 µM) was 61.1% and the viability, T/C (second compound 3 µM, first compound 0.000316 µM) was 107%. The viability, T/C (second compound 3 µM, first compound 0.001 µM) was 98.8%, the viability, T/C (second compound 3 µM, first compound 0.00316 µM) was 88.5% and the viability, T/C (second compound 3 µM, first compound 0.01 µM) was 98.7%. It also gave a viability, T/C (second compound 3 µM, first compound 0.0316 µM) of 75.5%, a viability, T/C (second compound 3 µM, first compound 0.1 µM) of 58.4% and a viability, T/C (second compound 9.49 µM, first compound 0.000316 µM) of 95.7%. It also gave a viability, T/C (second compound 9.49 µM, first compound 0.001 µM) of 96.7%, a viability, T/C (second compound 9.49 µM, first compound 0.00316 µM) of 93% and a viability, T/C (second compound 9.49 µM, first compound 0.01 µM) of 89%. The viability, T/C (second compound 9.49 µM, first compound 0.0316 µM) was 70.4%, the viability, T/C (second compound 9.49 µM, first compound 0.1 µM) was 56.5% and the viability, T/C (second compound 30 µM, first compound 0.000316 µM) was 85.7%. The viability, T/C (second compound 30 µM, first compound 0.001 µM) was 90.5%, the viability, T/C (second compound 30 µM, first compound 0.00316 µM) was 87% and the viability, T/C (second compound 30 µM, first compound 0.01 µM) was 83.3%. For the same compound, the viability, T/C (second compound 30 µM, first compound 0.0316 µM) was 75.3% and the viability, T/C (second compound 30 µM, first compound 0.1 µM) was 57.5%.
